Data from patent publication US20120015961A1, “ISOTHIOUREA DERIVATIVES OR ISOUREA DERIVATIVES HAVING BACE1 INHIBITORY ACTIVITY” (SHIONOGI & CO., LTD., priority 2009, published 2012).

How the values were obtained:
[1] = BA test; type: in vivo; details: rat, plasma; SD rats, from AUCs of oral and intravenous administration
Method: Materials and methods for studies on oral absorption
(2) Breeding conditions: rats were allowed to freely take solid feed and sterilized tap water
(3) Dose and grouping: orally or intravenously administered at a predetermined dose; grouping was as follows (Dose depends on the compound)
Oral administration: 1 to 30 mg/kg (n=2 to 3)
Intravenous administration: 0.5 to 10 mg/kg (n=2 to 3)
(4) Preparation of dosing solution: for oral administration, in a solution or a suspension state; for intravenous administration, in a solubilized state
(5) Administration method: in oral administration, forcedly administer into ventriculus with oral probe; in intravenous administration, administer from caudal vein with a needle-equipped syringe
(6) Evaluation items: blood was collected over time, and the plasma concentration of drug was measured by LC/MS/MS
(7) Statistical analysis: regarding the transition of the plasma concentration, the area under the plasma concentration-time curve (AUC) was calculated by non-linear least squares program WinNonlin (Registered trademark), and the bioavailability (BA) was calculated from the AUCs of the oral administration group and intravenous administration group

[2] = test system: Neuroblastoma SH-SY5Y cells (SH/APPwt) with human wild-type β-APP excessively expressed; test: Measurement of β-amyloid (Aβ) production inhibitory effect in cell; type: cell-based; details: Homo sapiens, SH-SY5Y, 24 h, amount needed to inhibit Aβ production by 50%, 24 hours incubation, Amyloid β1-40 HTRF
Method: Neuroblastoma SH-SY5Y cells (SH/APPwt) with human wild-type β-APP excessively expressed therein were prepared at 8×10^5 cells/mL, and 150 μl portions thereof were inoculated into each well of a 96-well culture plate (Falcon). The cells were cultured for 2 hours at 37° C. in a 5% gaseous carbon dioxide incubator. Then, a solution which had been preliminarily prepared by adding and suspending the test compound (DMSO (dimethyl sulfoxide) solution) so as to be 2 μl/50 μl medium was added to the cell sap. Namely, the final DMSO concentration was 1%, and the amount of the cell culture was 200 μl. After the incubation was performed for 24 hours from the addition of the test compound, 100 μl of the culture supernatant was collected from each fraction. The amount of the Aβ in each fraction was measured.
The […] was measured as follows. 10 μl of a homogeneous time resolved fluorescence (HTRF) measurement reagent (Amyloid β1-40 peptide; IBA Molecular Holding, S.A.) and 10 μl of the culture supernatant were put into a 384-well half area microplate (black microplate, Costar) and mixed with each other, and then left standing overnight at 4° C. while the light was shielded. Then, the fluorescence intensity (excitation wavelength: 337 nm, measurement wavelength: 620 nm and 665 nm) was measured with a Wallac 1420 multilabel counter (Perkin Elmer life sciences). The Aβ amount was determined from the count rate at each measurement wavelength (10000×Count 665/Count 620), and the amount needed to inhibit Aβ production by 50% (IC50) was calculated from at least six different dosages.

[3] = target: T1, Recombinant human BACE1 (Homo sapiens, UniProt P56817); test: Assay of BACE1 inhibiting activity; type: biochemical; details: 50% inhibitory concentration against enzymatic activity, pH 5.0, 30° C., 3 hours
T1 construct: purchased R&D Systems
T1 sequence (P56817 46-501): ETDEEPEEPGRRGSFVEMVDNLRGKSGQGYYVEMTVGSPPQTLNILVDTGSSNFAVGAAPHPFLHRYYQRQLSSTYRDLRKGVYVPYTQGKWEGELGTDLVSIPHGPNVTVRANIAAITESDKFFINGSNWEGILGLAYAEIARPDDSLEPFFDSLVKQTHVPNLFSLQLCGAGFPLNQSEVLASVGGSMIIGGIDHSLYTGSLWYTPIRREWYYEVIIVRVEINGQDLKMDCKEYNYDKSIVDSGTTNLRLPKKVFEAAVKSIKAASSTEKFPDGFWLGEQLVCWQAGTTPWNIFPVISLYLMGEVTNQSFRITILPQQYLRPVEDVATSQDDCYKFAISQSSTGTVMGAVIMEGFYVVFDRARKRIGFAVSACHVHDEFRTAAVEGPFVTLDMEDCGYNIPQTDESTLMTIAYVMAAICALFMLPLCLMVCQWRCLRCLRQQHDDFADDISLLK
Method: 48.5 μL of substrate peptide solution (Biotin-XSEVNLDAEFRHDSGC-Eu: Xεε-amino-n-capronic acid, Eu=Europium cryptate) was added to each well of 96-hole half-area plate (a black plate: Costar Corporation), and after addition of 0.5 μl of the test compound (dissolved in […]) and 1 μl of Recombinant human BACE1 (R&D Systems), the reaction mixture was incubated at 30° C. for 3 hours. The substrate peptide was synthesized by reacting Cryptate TBPCOOH mono SMP (CIS bio international) with Biotin-XSEVNLDAEFRHDSGC (Peptide Institute, Inc.). The final concentrations of the substrate peptide and Recombinant human BACE1 were adjusted to 18 nM and 7.4 nM respectively, and the reaction was performed in sodium acetate buffer (50 mM sodium acetate, pH 5.0, 0.008% Triton X-100). After the completion of reaction, 50 μl of 8.0 μg/ml Streptavidin-XL665 (CIS bio international) dissolved in phosphate buffer (150 mM K2HPO4—KH2PO4, pH 7.0, 0.008% Triton X-100, 0.8 M KF) was added to each well and left stand at 30° C. for an hour. Then, fluorescence intensity was measured (excitation wavelength: 320 nm, measuring wavelength: 620 nm and 665 nm) using Wallac 1420 multilabel counter (Perkin Elmer life sciences). Enzymatic activity was determined from counting ratio of each wavelength (10,000×Count 665/Count 620) and 50% inhibitory concentration against the enzymatic activity was calculated.

[4] = target: T2, CYP2D6 (Homo sapiens, UniProt P10635); test: CYP inhibition test (CYP2D6); type: in vitro ADME; details: pooled human hepatic microsome, dextromethorphan O-demethylation
T2 construct: Enzyme, pooled human hepatic microsome 0.2 mg protein/mL; from tissue; host or cells: pooled human hepatic microsomes
T2 sequence (P10635 whole entry): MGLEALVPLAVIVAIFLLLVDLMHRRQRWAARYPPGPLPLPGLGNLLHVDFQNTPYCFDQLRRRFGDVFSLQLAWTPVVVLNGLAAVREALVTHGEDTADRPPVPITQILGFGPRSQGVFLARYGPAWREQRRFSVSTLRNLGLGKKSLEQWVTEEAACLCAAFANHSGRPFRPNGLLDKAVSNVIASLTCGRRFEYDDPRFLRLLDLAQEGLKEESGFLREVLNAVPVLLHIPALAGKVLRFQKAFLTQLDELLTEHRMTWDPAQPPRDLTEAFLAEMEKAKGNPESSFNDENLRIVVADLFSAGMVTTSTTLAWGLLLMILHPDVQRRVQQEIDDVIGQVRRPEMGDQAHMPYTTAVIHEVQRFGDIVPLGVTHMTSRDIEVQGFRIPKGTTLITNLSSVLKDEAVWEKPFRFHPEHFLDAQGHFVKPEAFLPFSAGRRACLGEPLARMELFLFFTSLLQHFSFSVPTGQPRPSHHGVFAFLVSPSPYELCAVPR
Method: (§1) Using commercially available pooled human hepatic microsome, and employing, as markers, 7-ethoxyresorufin O-deethylation (CYP1A2), tolbutamide methyl-hydroxylation (CYP2C9), mephenyloin 4′-hydroxylation (CYP2C19), dextromethorphan O-demethylation (CYP2D6), and terfenedine hydroxylation as typical substrate metabolism reactions of human main five CYP enzyme forms (CYP1A2, 2C9, 2C19, 2D6, 3A4), an inhibitory degree of each metabolite production amount by a test compound was assessed.
(§2) The reaction conditions were as follows: […]
(§3) Each five kinds of substrates, human hepatic microsome, or a test drug in 50 mM Hepes buffer as a reaction solution was added to a 96-well plate at the composition as described above, NADPH, a cofactor, was added to initiate metabolism reactions as markers and, after the incubation at 37° C. for 15 minutes, a methanol/acetonitrile=1/1 (v/v) solution was added to stop the reaction. After the centrifugation at 3000 rpm for 15 minutes, resorufin (CYP1A2 metabolite) in the supernatant was quantified by a fluorescent multilabel counter and tributamide hydroxide (CYP2CP metabolite), mephenyloin 4′ hydroxide (CYP2C19 metabolite), […], and terfenadine alcohol (CYP3A4 metabolite) were quantified by LC/MS/MS. […]

[5] = target: CYP3A4 (Homo sapiens, UniProt P08684); test: CYP inhibition test (CYP3A4); type: in vitro ADME; design: Enzyme, pooled human hepatic microsome 0.2 mg protein/mL; from tissue; host or cells: pooled human hepatic microsomes; details: pooled human hepatic microsome, terfenedine hydroxylation
CYP3A4, sequence (P08684 whole entry): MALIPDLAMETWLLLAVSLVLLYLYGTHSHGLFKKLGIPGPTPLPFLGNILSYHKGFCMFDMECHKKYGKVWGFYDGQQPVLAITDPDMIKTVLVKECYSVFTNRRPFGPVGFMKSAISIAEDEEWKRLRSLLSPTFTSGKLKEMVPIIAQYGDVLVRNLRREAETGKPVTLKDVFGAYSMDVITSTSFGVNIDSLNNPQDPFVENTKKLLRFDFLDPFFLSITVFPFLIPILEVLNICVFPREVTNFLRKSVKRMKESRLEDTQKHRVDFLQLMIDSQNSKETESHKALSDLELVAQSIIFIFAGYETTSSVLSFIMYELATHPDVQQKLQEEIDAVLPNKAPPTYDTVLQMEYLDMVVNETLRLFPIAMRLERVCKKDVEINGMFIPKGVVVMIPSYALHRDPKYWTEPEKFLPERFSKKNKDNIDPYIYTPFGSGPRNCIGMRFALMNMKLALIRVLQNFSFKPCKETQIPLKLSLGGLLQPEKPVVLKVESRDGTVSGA
Method: as §1, §2, §3

[6] = target: T3, CYP1A2 (Homo sapiens, UniProt P05177); test: CYP inhibition test (CYP1A2); type: in vitro ADME; details: pooled human hepatic microsome, 7-ethoxyresorufin O-deethylation
T3 construct: Enzyme, pooled human hepatic microsome 0.2 mg protein/mL; from tissue; host or cells: pooled human hepatic microsomes
T3 sequence (P05177 1-516): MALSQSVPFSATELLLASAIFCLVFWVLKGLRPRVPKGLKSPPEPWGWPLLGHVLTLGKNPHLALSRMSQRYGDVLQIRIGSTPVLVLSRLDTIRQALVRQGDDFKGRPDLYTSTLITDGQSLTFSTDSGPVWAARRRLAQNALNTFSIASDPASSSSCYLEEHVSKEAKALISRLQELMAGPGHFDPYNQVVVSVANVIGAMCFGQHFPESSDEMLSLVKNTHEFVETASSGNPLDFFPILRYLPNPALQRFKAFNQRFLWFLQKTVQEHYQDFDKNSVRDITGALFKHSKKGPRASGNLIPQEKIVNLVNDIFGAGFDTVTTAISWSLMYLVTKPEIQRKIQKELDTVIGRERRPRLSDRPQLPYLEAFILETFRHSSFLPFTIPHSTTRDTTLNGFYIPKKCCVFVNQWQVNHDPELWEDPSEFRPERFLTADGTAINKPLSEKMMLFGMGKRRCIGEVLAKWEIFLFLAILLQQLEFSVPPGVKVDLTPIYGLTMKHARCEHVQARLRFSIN
Method: as §1, §2, §3

[7] = target: T4, CYP2C19 (Homo sapiens, UniProt P33261); test: CYP inhibition test (CYP2C19); type: in vitro ADME; details: pooled human hepatic microsome, mephenyloin 4′-hydroxylation
T4 construct: Enzyme, pooled human hepatic microsome 0.2 mg protein/mL; from tissue; host or cells: pooled human hepatic microsomes
T4 sequence (P33261 whole entry): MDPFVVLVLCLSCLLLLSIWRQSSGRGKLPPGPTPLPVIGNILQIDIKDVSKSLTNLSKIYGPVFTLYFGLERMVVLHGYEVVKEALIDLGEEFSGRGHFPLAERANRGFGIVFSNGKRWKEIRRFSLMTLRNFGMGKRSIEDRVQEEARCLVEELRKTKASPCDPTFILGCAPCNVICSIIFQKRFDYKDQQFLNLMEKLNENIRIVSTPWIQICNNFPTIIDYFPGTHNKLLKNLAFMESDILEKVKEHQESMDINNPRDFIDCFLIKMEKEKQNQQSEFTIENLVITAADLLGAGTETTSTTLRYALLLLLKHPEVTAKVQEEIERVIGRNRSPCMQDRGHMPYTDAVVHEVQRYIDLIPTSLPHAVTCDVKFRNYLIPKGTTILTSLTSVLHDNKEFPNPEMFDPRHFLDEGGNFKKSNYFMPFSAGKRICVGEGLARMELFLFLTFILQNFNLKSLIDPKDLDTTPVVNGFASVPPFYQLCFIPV
Method: as §1, §2, §3

[8] = target: T5, CYP2C9 (Homo sapiens, UniProt P11712); test: CYP inhibition test (CYP2C9); type: in vitro ADME; details: pooled human hepatic microsome, tolbutamide methyl-hydroxylation
T5 construct: Enzyme, pooled human hepatic microsome 0.2 mg protein/mL; from tissue; host or cells: pooled human hepatic microsomes
T5 sequence (P11712 whole entry): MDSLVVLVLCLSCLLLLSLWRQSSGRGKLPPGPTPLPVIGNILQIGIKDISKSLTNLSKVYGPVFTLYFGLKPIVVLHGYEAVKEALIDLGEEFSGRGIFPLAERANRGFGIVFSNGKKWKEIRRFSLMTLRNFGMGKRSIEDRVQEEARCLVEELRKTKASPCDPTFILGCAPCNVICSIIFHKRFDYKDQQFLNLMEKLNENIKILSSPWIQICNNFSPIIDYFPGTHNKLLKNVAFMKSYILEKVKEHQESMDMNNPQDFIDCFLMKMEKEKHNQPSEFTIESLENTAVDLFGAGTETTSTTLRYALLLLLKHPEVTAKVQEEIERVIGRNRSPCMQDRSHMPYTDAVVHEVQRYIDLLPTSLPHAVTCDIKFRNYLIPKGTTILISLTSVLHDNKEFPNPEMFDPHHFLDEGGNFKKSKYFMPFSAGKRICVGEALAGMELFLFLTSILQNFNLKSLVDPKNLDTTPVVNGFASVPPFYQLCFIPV
Method: as §1, §2, §3

[9] = Metabolic stability test; type: in vitro ADME; details: human liver microsomes 0.5 mg protein/mL, 1 mmol/L NADPH, 30 minutes at 37° C.
Method: The target compound was reacted with commercially available pooled human liver microsomes for a predetermined time period. The residual rate was calculated by comparing the reacted sample and unreacted sample, and thus the degree of metabolism in liver was evaluated.
In 0.2 mL of a buffer (50 mmol/L tris-HCl pH 7.4, 150 mmol/L potassium chloride, 10 mmol/L magnesium chloride) containing human liver microsomes 0.5 mg protein/mL, reaction was carried out in the presence of 1 mmol/L NADPH for 0 minute or 30 minutes at 37° C. (oxidative reaction). After the reaction, 50 μL of the reaction solution was added to and mixed with 100 μL of a solution of methanol/acetonitrile=1/1 (v/v), and the mixture was centrifuged for 15 minutes at 3000 rpm. The test compound in the centrifuged supernatant was quantified by LC/MS/MS, and the residual amount of the test compound after the reaction was calculated based on the compound amount at O-minute reaction set as 100%.

[10] = Solubility test; type: physicochemical; details: JP-I medium with 2% DMSO, pH 1.2, simulated gastric fluid, kinetic from dmso stock, turbidity after 4 hours
Method: A 2-fold dilution series (12 points) of a 10 mM solution of a test compound in DMSO was added to a medium (JP-I, JP-II) (2%), and solubility was assessed by 3 stages (High; >40 μM, Medium; 3-40 μM, Low; <3 μM) from a turbidity after 4 hours (crystallization information).

bioavailability [1]	IC50 [2]	IC50 [3]	IC50 [4]	IC50 [5]	IC50 [6]	IC50 [7]	IC50 [8]	residual amount of the test compound after the reaction [9]	solubility at 4 h [10]	SMILES
75%	≤ 1 µM	≤ 1 µM	–	–	–	–	–	–	–	CO/C(N)=N\c1c(C)ccc2ccc(NC(=O)c3ccc(C#N)cn3)cc12 [Compound 77]
–	≤ 1 µM	–	> 20 µM	> 20 µM	> 20 µM	> 20 µM	> 20 µM	–	–	N#Cc1ccc(C(=O)Nc2cccc(C/N=C(\N)OCCCO)c2)nc1 [Compound 36]
–	≤ 1 µM	–	> 20 µM	> 20 µM	> 20 µM	> 20 µM	> 20 µM	–	–	CO/C(N)=N\C1(c2cccc(NC(=O)c3cnc(C)cn3)c2)CC1 [Compound 41]
–	–	–	–	–	–	–	–	98.9%	> 40 µM	CO/C(N)=N\c1cccc2ncc(NC(=O)c3ccc(C#N)cn3)cc12 [Compound 76]
–	≤ 1 µM	0.188 µM	–	–	–	–	–	100%	–	CO/C(N)=N/C(c1ccc(F)cc1)c1cccc(NC(=O)c2ccc(C#N)cn2)c1 (centres unmarked) [Compound 50]
87.2%	≤ 1 µM	≤ 1 µM	–	–	–	–	–	–	–	CO/C(N)=N/C(c1ccccc1)c1cccc(NC(=O)c2ccc(C#N)cn2)c1 (centres unmarked) [Compound 48]
